The record followed here is patent publication US20260242438A1 (INSTITUTE OF MATERIA MEDICA, CHINESE ACADEMY OF MEDICAL …, priority 2022, published 2026).

Test [1] addresses T1, chymotrypsin (Bos taurus, UniProt P00766). The test can be described thus: Determination of the Michaelis constant Km of chymotrypsin hydrolyzing AAPFpNA. It is filed as biochemical. The note with it: R^2=0.9988, pH 7.8, 37° C. The procedure:
(1) Added a total 198 μL of reaction buffer (20 mM CaCl2, 50 mM Tris-HCl (pH 7.8)) into the 96 well plate, followed by preheating at 37° C. for 15 min. Then added 2 μL of different concentrations of substrates (p-Nitroanilide, pNA, 0.5% in DMSO), and mixed by centrifugation at 500 rpm for 1 min. Finally, the plate was incubated at 37° C. for 20 min, and the absorbance value at 405 nm was measured. In the 200 μL of reaction system, the final concentrations of pNA were 0, 0.025, 0.05, 0.075, 0.1, 0.125, 0.15, 0.25, and 0.3 mM, respectively. Make three repetitions for each concentration and plot the OD 405 nm value with pNA concentration to obtain the standard curve. (2) Added a total 190 μL of reaction buffer (20 mM CaCl2, 50 mM Tris-HCl (pH 7.8)) and 8 μL of 0.75 μM chymotrypsin into the 96 well plate, followed by preheating at 37° C. for 5 min. Then added 2 μL of different concentrations of substrates (AAPFpNA, dissolved in DMSO), and mixed by centrifugation at 500 rpm for 1 min. Finally, the plate was incubated at 37° C. for 20 min, and the absorbance value at 405 nm was measured. In the 200 μL of reaction system, the final concentrations of AAPFpNA were 0, 0.125, 0.25, 0.285, 0.33, 0.4, and 0.5 mM, respectively. […]
Using a certain concentration of chymotrypsin to catalyze different concentrations of AAPFpNA to produce pNA, and the absorbance value of OD 405 nm was measured.

The target of test [2] is T1, chymotrypsin. The test can be described thus: Determination of enzyme inhibitory activity against chymotrypsin (substrate AAPFpNA, OD 405 nm). It is filed as biochemical. The following applies: for IC50: chymotrypsin 30 nM, AAPFpNA 0.5 mM, pH 7.8, 37° C.; for remaining activity at 0.001 µM: peptide 0.001 μM; for remaining activity at 0.01 µM: peptide 0.01 μM; for remaining activity at 0.1 µM: peptide 0.1 μM; for remaining activity at 0.2 µM: peptide 0.2 μM; for remaining activity at 1 µM: peptide 1 μM; for remaining activity at 10 µM: peptide 10 μM; for remaining activity at 100 µM: peptide 100 μM.

A further test concerns Normal ICR mice. The test is described as follows: In vivo hypoglycemic activity, subcutaneous administration. The note with it: for Glucose (mean ± sd): subcutaneous, 0.9 mg/kg. The method, then:
Tail tip blood samples were collected at 40 min and 90 min after administration, and blood glucose levels were measured using glucose oxidase method to calculate blood glucose values at each blood sampling time point.

[3] abbreviates: read-out: Residual activity of chymotrypsin.

*1 amine or outer side, *2 acyl side, *3 side chain or, on linkers, in order; H or OH if unused. Where a SMILES comes first, the peptide text is derived from it. Bridges are numbered along the chain shown (N, C = ends). The star is where a group is joined. pNA = O=[N+]([O-])c1ccc(N*)cc1; Suc = O=C(CCC(=O)[*:2])[*:1]

On to `C[C@H](NC(=O)CCC(=O)O)C(=O)N[C@@H](C)C(=O)N1CCC[C@H]1C(=O)N[C@@H](Cc1ccccc1)C(=O)Nc1ccc([N+](=O)[O-])cc1` [AAPFpNA, N-succinyl-Ala-Ala-Pro-Phe-p-nitroaniline] (Suc-AAPF-pNA), for which the Km at chymotrypsin [1] amounted to 380 µM.

On chymotrypsin [2], `CC[C@H](C)[C@@H]1NC(=O)[C@@H]2CCCN2C(=O)[C@@H]2CCCN2C(=O)[C@H]([C@@H](C)CC)NC(=O)[C@H](CO)NC(=O)[C@H](Cc2ccc(O)cc2)NC(=O)[C@H]([C@@H](C)O)NC(=O)[C@H](C)NC(=O)[C@H](CCCNC(=N)N)NC(=O)[C@H](CCC(=O)O)NC(=O)[C@@H](N)CSSC[C@@H](C(=O)N[C@@H](Cc2ccccc2)C(=O)O)NC1=O` [CH70] (H-CERATYSIPPICF-OH; disulfide 1-12; C-terminus assumed) returned an inhibition constant Ki of 110 nM and an IC50 of 250 nM. At chymotrypsin [2] (setting [3]), the remaining activity at 0.001 µM is 100 ± 7.6%, the remaining activity at 0.01 µM worked out at 106 ± 1.8%, the remaining activity at 0.1 µM stood at 105.8 ± 0.9% and the remaining activity at 0.2 µM was found to be 55 ± 7.2%. In addition, at chymotrypsin [2] (setting [3]), the remaining activity at 1 µM was determined as 7.7 ± 0.2%, the remaining activity at 10 µM was determined as 0.7 ± 0.3% and the remaining activity at 100 µM is -0.1 ± 0.1%. Also, the remaining activity at 0.15 µM on chymotrypsin [2] (peptide 0.15 μM, read-out: Residual activity of chymotrypsin) is 96.5 ± 8.5%. Also, the remaining activity at 0.5 µM at chymotrypsin [2] (peptide 0.5 μM, read-out: Residual activity of chymotrypsin) is 26 ± 2.5%.

At chymotrypsin [2], `CC[C@H](C)[C@@H]1NC(=O)[C@@H]2CCCN2C(=O)[C@@H]2CCCN2C(=O)[C@H]([C@@H](C)CC)NC(=O)[C@H](CO)NC(=O)[C@H](Cc2ccccc2)NC(=O)[C@H]([C@@H](C)O)NC(=O)[C@H](C)NC(=O)[C@H](CCCNC(=N)N)NC(=O)CNC(=O)[C@@H](N)CSSC[C@@H](C(=O)N[C@@H](Cc2ccccc2)C(=O)O)NC1=O` [CH71] (H-CGRATFSIPPICF-OH; disulfide 1-12; C-terminus assumed) showed an inhibition constant (Ki) of 180 nM and a half-maximal inhibitory concentration (IC50) of 410 nM. On chymotrypsin [2] (setting [3]), the remaining activity at 0.001 µM amounted to 101.4 ± 0.6%, the remaining activity at 0.01 µM is 100.6 ± 1%, the remaining activity at 0.1 µM was 100.3 ± 0.5% and the remaining activity at 0.2 µM was determined as 81.7 ± 3.3%. Further, at chymotrypsin [2] (setting [3]), the remaining activity at 1 µM came to 20.7 ± 1.3%, the remaining activity at 10 µM amounted to 0.8 ± 0.2% and the remaining activity at 100 µM was 0.1 ± 0.1%. Further, at chymotrypsin [2] (peptide 0.4 μM, read-out: Residual activity of chymotrypsin), the remaining activity at 0.4 µM amounted to 49.9 ± 6.6%. At chymotrypsin [2] (peptide 0.8 μM, read-out: Residual activity of chymotrypsin), the remaining activity at 0.8 µM is 23.6 ± 1.5%.

Regarding “lispro: insulin analogue lispro synthesized in the present invention”, the “hypoglycemic activity (in words)” value with Normal ICR mice (subcutaneous administration, compared with a positive control) was “good hypoglycemic activity”. In addition, the results for the “Glucose (mean ± sd)” value in the test on Normal ICR mice (0 min), in the test with Normal ICR mice (40 min) and with Normal ICR mice (90 min) were 96.7 ± 24.8 mg/dL, 70.3 ± 6.2 mg/dL and 72.9 ± 15.6 mg/dL, respectively.
